Experimental data taken from patent publication US11291674B2 (CALITHERA BIOSCIENCES, INC., priority 2016, dated 2022).

Assays:
CT26 lung metastases = assay: Adoptive NK cell transfer study, CT26 lung metastasis model; assay type: in vivo, mouse; conditions: compared to control groups, 14 days
Protocol: Adoptive NK cell transfer studies. Balb/c mice were inoculated i.v. with 1×10^5 CT26 cells. 1×10^6NK cells (isolated from Balb/c spleens the day before injection and incubated with recombinant IL-2 and IL-15 for 18 h) were transferred on the same day as tumor inoculation. The injected NK cells were profiled by flow cytometry to be CD25^+ and 80-90% pure with less than 0.4% T cells.

[1] = target: T1, Rat cerebellar neuronal NOS (Rattus norvegicus, UniProt P29476); assay: NOS activity assay, neuronal NOS; assay type: biochemical; conditions: 50 μM arginase inhibitor
T1 construct: native rat cerebellar neuronal NOS; tissue Eurofins/Cerep Panlabs (contract laboratory that ran the assay); host or cells: rat cerebellum
Source text: Nitric oxide (NO) synthase (NOS) activity assays.
Standard deviations are indicated in parentheses. […] N/A=not applicable.

[2] = test system: cancer patient granulocyte-mediated suppression of T cell proliferation; assay: T cell proliferation in media conditioned by granulocytes of a head and neck cancer patient; assay type: cell-based, human
Protocol: T cell/myeloid cell co-culture assays. […] Granulocytes were incubated for 48 h at 37° C., during which time they spontaneously activate as determined by surface expression of CD66b and scatter properties. T cells isolated from the same donor using a pan-T cell isolation kit (Stemcell Technologies) were loaded with CFSE and plated with immobilized anti-CD3 and soluble anti-CD28 in the presence of the aged granulocytes. The cells were co-cultured at several ratios of granulocytes to T cells as indicated or at a fixed ratio of 4 T cells to 1 granulocyte. Co-cultures were incubated for 3-4 days, at which time media were analyzed for L-arginine and L-ornithine by mass spectrometry and T cell proliferation was determined by flow cytometry. Granulocytic MDSC (G-MDSC) or granulocytes from cancer patients were isolated from whole blood purchased from Conversant Biologics. G-MDSCs were purified from the PBMC layer of a Ficoll gradient by positive selection for CD66b^+ cells. Granulocytes were purified from the RBC layer of a Ficoll gradient using Hetasep (Stemcell Technologies). G-MDSC or granulocytes were incubated in co-culture media containing 100 μM L-arginine for 48 h, at which time the cells were removed and the G-MDSC- or granulocyte-conditioned media were used for incubating healthy donor CFSE-loaded T cells on immobilized anti-CD3/soluble anti-CD28 for 3-4 days. Cytokines were quantified in the media from T cell co-culture assays using the Cytometric Bead Array kit according to the manufacturer's instructions (BD Biosciences).

[3] = test system: intracellular arginase in Human HepG2 cell line; assay: Native arginase activity in intact cells, HepG2; assay type: cell-based; conditions: mean (SD), N=3, 10 mM L-arginine, urea in media after 24 h
Source text: Native arginase activity in intact cells.
Standard deviations are indicated in parentheses.

[4] = test system: granulocyte-mediated suppression of T cell proliferation; assay: T cell/granulocyte co-culture assay, healthy donor; assay type: cell-based, human
Protocol: T cell and NK cell proliferation assays. T cells or NK cells were purified from healthy donor human blood or from murine splenocytes using a negative selection kit for the appropriate cell type and species from Stemcell Technologies. Isolated T cells or NK cells were loaded with carboxyfluorescein succinimidyl ester (CFSE, Thermo Fisher) and stimulated for 72-96 h in complete growth media containing a minimum of either 50 µM L-arginine (NK cells) or 100 μM L-arginine (T cells). […] Proliferation was quantified by analyzing CFSE dilution by flow cytometry (Guava flow cytometer, Millipore, Billerica, Mass. or Attune N×T flow cytometer, ThermoFisher).
T cell/myeloid cell co-culture assays. […] Granulocytes were incubated for 48 h at 37° C., during which time they spontaneously activate as determined by surface expression of CD66b and scatter properties. […] Co-cultures were incubated for 3-4 days, at which time media were analyzed for L-arginine and L-ornithine by mass spectrometry and T cell proliferation was determined by flow cytometry. […] Cytokines were quantified in the media from T cell co-culture assays using the Cytometric Bead Array kit according to the manufacturer's instructions (BD Biosciences).

## C[C@H](N)C(=O)N1C[C@H](CCCB(O)O)[C@](N)(C(=O)O)C1 [arginase inhibitor]
CT26 lung metastases
  Lung metastases, combination with NK cells: significantly fewer lung metastases
[1]
  Inhibition of neuronal NOS: No inhibition
[2]; T cells in cancer patient granulocyte-conditioned media
  Secretion of interferon-γ and granzyme-B into the media: restored secretion
[2]; granulocytes of a head and neck cancer patient
  Arginine depletion of the media: arginine depletion was blocked
[2]; media conditioned by granulocytes of a head and neck cancer patient
  T cell proliferation restored, of control levels: 79%
[3]
  IC50: 32 µM
[4]; co-culture with healthy donor granulocytes
  T cell proliferation restored, of the proliferation observed for T cells without granulocytes: 90%
[4]; healthy donor granulocytes
  Depletion of L-arginine from the media by granulocytes: blocked depletion of L-arginine
